Results as given in patent US20250352505A1, “COMPOSITIONS AND METHODS OF TREATING RESPIRATORY SYNCYTIAL VIRUS” (University of South Florida, priority 2023, published 2025).

What was measured:
ESKAPE pathogens = assay: Antibacterial screening; assay type: cell-based; settings: ESKAPE pathogens / bacterial screens
Candida strains = assay: Antifungal screening; assay type: cell-based; settings: several Candida strains / fungal screens
[1] = tested on: recombinant RSV encoding Renilla luciferase (rA2-Rluc); assay: RSV antiviral assay (Renilla luciferase reporter RSV in A549 cells); assay type: cell-based, respiratory syncytial virus; settings: for activity against RSV (in words): inhibition of RSV gene expression / viral transcription; for IC50: rA2-Rluc in A549 cells, 24 h, luciferase activity, read-out: IC50 against RSV
Description: A549 (CCL-185, ATCC) cells were seeded at 1.6×10^4 cells in 100 μl of 5% FBS/1× penicillin-streptomycin/F12 medium per well in 96-well uClear® black plates with clear bottom (Greiner 655090). Cells were infected with 400 PFU/well of a recombinant RSV encoding Renilla luciferase as an additional transcription unit (rA2-Rluc^22) in total volume of 50 μL/well and allowed to adsorb for 1 h. Purified compounds were serially diluted two-fold in triplicate and 50 μL/well of the diluted extracts were added to the infected cells. After further incubation at 37° C. and 5% CO2 for 24 h, the supernatants were removed and cells were lysed using Renilla lysis buffer (Promega). Luciferase activity was measured with the Renilla Luciferase reagent (Promega) and BioTek Synergy Mx microplate luminometer using Gen5 version 2.00.18 software. RSV antiviral effect for test samples was determined by normalizing to DMSO-treated control samples and multiplying by 100 to obtain percent of control. Statistical analysis was performed using GraphPad Prism software version 9.4.1.

[2] = tested on: panel of tumor cell lines; settings: cited from earlier work
HIV gene expression = settings: cited from earlier work
MRSA = settings: cited from earlier work

Row | Compound | antibacterial activity (ESKAPE pathogens) | antifungal activity (Candida strains) | activity against RSV (in words) [1] | also measured
1 | CC(=O)OC1CC2(C)CC(O)(C3CC(=O)C(C)=CC3O)CCC2C2(C)CCCC(C)(C)C12 (stereo not shown) [Compound 11, suberitenone B] | inactive | inactive | active | IC50 [1]: 3.5 µM
2 | CC(=O)OC1CC2(C)C=C3C4CC(=O)C(C)(CC4O)C3CC2C2(C)CCCC(C)(C)C12 (stereo not shown) [Compound 1, Neosuberitenone A] | – | – | – | viral inhibitory effects at 25 μg/mL ([1]; 25 μg/mL): did not show any viral inhibitory effects
3 | isosuberitenone B | – | – | – | cytotoxicity against a panel of tumor cell lines [2]: weak cytotoxicity
4 | CC(=O)OC1CC2(C)C(O)C(C3CC(=O)C(C)=CC3O)=CCC2C2(C)CCCC(C)(C)C12 (stereo not shown) [Compound 3, Suberitenone F] | inactive | inactive | active | –
5 | anvilone A | – | – | – | HIV gene expression (HIV gene expression): turned on HIV gene expression
6 | CC(=O)OC1CC2(C)C=C(C3CC(=O)C(C)=CC3O)CCC2C2(C)CCCC(C)(C)C12 (stereo not shown) [Compound 10, suberitenone A] | inactive | inactive | active | IC50 [1]: 7.9 µM
7 | 19-episuberitenone B | – | – | – | cytotoxicity against a panel of tumor cell lines [2]: weak cytotoxicity
8 | oxaspirosuberitenone | – | – | – | antibacterial activity against MRSA (MRSA): mild antibacterial activity
